Measurements: patent US20020137929A1, “1 - (3-heterocyclylphenyl) isothiourea, -isourea, -guanidine and -amidine herbicidal agents” (Intellectual Property Department, BASF Aktiengesellschaft, priority 1998, published 2002)

Tests used:
ABUTH (Velvetleaf) = experiment: Preemergence herbicidal evaluation; type: in vivo, Abutilon theophrasti; conditions: rated 4-5 weeks after treatment, rating scale 0-9
Method in brief: (§1)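 Rating at 4–5 wk post-spray on a 0–9 visual scale vs control. Application: aqueous acetone, ~0.0156–0.500 kg/ha, to soil surface after seeding, preemergence.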

CASOB (Sicklepod) = experiment: Preemergence herbicidal evaluation; type: in vivo, Cassia obtusifolia; conditions: rated 4-5 weeks after treatment, rating scale 0-9
Method in brief: as §1

[1] = system: GLXMAW (Soybean, Williams); experiment: Preemergence herbicidal evaluation; type: in vivo, Glycine max, (L.) Merr. cv Williams; conditions: rated 4-5 weeks after treatment, rating scale 0-9
Text: (§2) Results of herbicide evaluation are expressed on a rating scale (0-9). The scale is based upon a visual observation of plant stand, vigor, malformation, size, chlorosis and overall plant appearance as compared with a control.
(§3) The preemergence herbicidal activity of the test compounds of the present invention is exemplified by the following tests in which the seeds of a variety of monocotyledonous and dicotyledonous plants are separately mixed with potting soil and planted on top of approximately one inch of soil in separate pint cups. After planting, the cups are sprayed with the selected aqueous acetone solution containing test compound in sufficient quantity to provide the equivalent of about 0.0156 to 0.500 kg per hectare of test compound per cup. The treated cups are then placed on greenhouse benches, watered and cared for in accordance with conventional greenhouse procedures. From four to five weeks after treatment, the tests are terminated and each cup is examined and rated according to the rating system provided in Example 37.
(§4) The compounds evaluated are reported by compound number given in Example 37.

ECHCG (Barnyardgrass) = experiment: Preemergence herbicidal evaluation; type: in vivo, Echinochloa crus-galli; conditions: rated 4-5 weeks after treatment, rating scale 0-9
Method in brief: as §1

[2] = system: IPOHE (Morningglory, Ivyleaf); experiment: Postemergence herbicidal evaluation; type: in vivo, Ipomoea hederacea; conditions: postemergence
Method in brief: (§5)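 Scores (0–9) reflect plant stand, vigor, malformation, size, chlorosis and general appearance relative to control, read 4 to 5 weeks after treatment and averaged where tests were repeated. Application: about 0.0156–0.500 kg/ha sprayed at 40 psi onto two-week seedlings.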

[3] = system: SAGPY (Arrowhead (Pygmaea)); experiment: Preemergence weed control under flooded paddy conditions; type: in vivo, Sagittaria pygmaea; conditions: 0.2500 kg/ha, rated 3-4 weeks after treatment
Method in brief: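 Seeds or propagules sown in silt loam kept flooded 1.5-3 cm; compounds in 50/50 acetone/water pipetted into flood water at about 0.0313 to 0.500 kg/ha. Greenhouse; visual 0-9 rating versus untreated control 3-4 weeks after treatment.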

SETVI (Foxtail, Green) = experiment: Preemergence herbicidal evaluation; type: in vivo, Setaria viridis; conditions: rated 4-5 weeks after treatment, rating scale 0-9
Method in brief: as §1

ZEAMX (Corn, Field) = experiment: Postemergence herbicidal evaluation; type: in vivo, Zea mays; conditions: postemergence
Method in brief: as §5

AMBEL (Ragweed, Common) [4] = experiment: Postemergence herbicidal evaluation; type: in vivo, Ambrosia artemisifolia; conditions: postemergence
Method in brief: as §5

[5] = system: GLXMAW (Soybean, Williams); experiment: Postemergence herbicidal evaluation; type: in vivo, Glycine max, (L.) Merr. cv Williams; conditions: postemergence
Method in brief: as §5

GALAP (Galium) = experiment: Preemergence herbicidal evaluation; type: in vivo, Galium aparine; conditions: rated 4-5 weeks after treatment, rating scale 0-9
Method in brief: as §1

AMBEL (Ragweed, Common) [6] = experiment: Preemergence herbicidal evaluation; type: in vivo, Ambrosia artemisifolia; conditions: rated 4-5 weeks after treatment, rating scale 0-9
Text: as §2, §3, §4

Structure (SMILES): CSCCN1C(=O)CSC1=Nc1cc(-n2c(=O)cc(C(F)(F)F)n(C)c2=O)c(F)cc1Cl [Compound 157]
- Preemergence herbicidal rating ABUTH (ABUTH (Velvetleaf); rate 0.0313 kg/ha): 0.0
- Preemergence herbicidal rating ABUTH (ABUTH (Velvetleaf); rate 0.0625 kg/ha): 0.0
- Preemergence herbicidal rating ABUTH (ABUTH (Velvetleaf); rate 0.1250 kg/ha): 4.0
- Preemergence herbicidal rating ABUTH (ABUTH (Velvetleaf); rate 0.2500 kg/ha): 6.0
- Preemergence herbicidal rating CASOB (CASOB (Sicklepod); rate 0.0313 kg/ha): 1.0
- Preemergence herbicidal rating CASOB (CASOB (Sicklepod); rate 0.0625 kg/ha): 0.0
- Preemergence herbicidal rating CASOB (CASOB (Sicklepod); rate 0.1250 kg/ha): 1.0
- Preemergence herbicidal rating CASOB (CASOB (Sicklepod); rate 0.2500 kg/ha): 5.0
- Preemergence herbicidal rating GLXMAW ([1]; rate 0.0313 kg/ha): 1.0
- Preemergence herbicidal rating GLXMAW ([1]; rate 0.0625 kg/ha): 0.0
- Preemergence herbicidal rating GLXMAW ([1]; rate 0.1250 kg/ha): 2.0
- Preemergence herbicidal rating GLXMAW ([1]; rate 0.2500 kg/ha): 4.0
- Preemergence herbicidal rating ECHCG (ECHCG (Barnyardgrass); rate 0.0313 kg/ha): 0.0
- Preemergence herbicidal rating ECHCG (ECHCG (Barnyardgrass); rate 0.0625 kg/ha): 0.0
- Preemergence herbicidal rating ECHCG (ECHCG (Barnyardgrass); rate 0.1250 kg/ha): 1.0
- Preemergence herbicidal rating ECHCG (ECHCG (Barnyardgrass); rate 0.2500 kg/ha): 0.0
- herbicidal rating IPOHE ([2]; rate 0.0156 kg/ha): 3.0
- herbicidal rating IPOHE ([2]; rate 0.0313 kg/ha): 7.0
- herbicidal rating IPOHE ([2]; rate 0.0625 kg/ha): 6.0
- herbicidal effect rating, SAGPY [3]: 0.0
- Preemergence herbicidal rating SETVI (SETVI (Foxtail, Green); rate 0.0313 kg/ha): 0.0
- Preemergence herbicidal rating SETVI (SETVI (Foxtail, Green); rate 0.0625 kg/ha): 0.0
- Preemergence herbicidal rating SETVI (SETVI (Foxtail, Green); rate 0.1250 kg/ha): 2.0
- Preemergence herbicidal rating SETVI (SETVI (Foxtail, Green); rate 0.2500 kg/ha): 1.0
- herbicidal rating ZEAMX (ZEAMX (Corn, Field); rate 0.0156 kg/ha): 7.0
- herbicidal rating ZEAMX (ZEAMX (Corn, Field); rate 0.0313 kg/ha): 7.0
- herbicidal rating ZEAMX (ZEAMX (Corn, Field); rate 0.0625 kg/ha): 7.0
- herbicidal rating AMBEL (AMBEL (Ragweed, Common) [4]; rate 0.0156 kg/ha): 2.0
- herbicidal rating AMBEL (AMBEL (Ragweed, Common) [4]; rate 0.0313 kg/ha): 2.0
- herbicidal rating AMBEL (AMBEL (Ragweed, Common) [4]; rate 0.0625 kg/ha): 5.0
- herbicidal rating GLXMAW ([5]; rate 0.0156 kg/ha): 4.5
- herbicidal rating GLXMAW ([5]; rate 0.0313 kg/ha): 5.0
- herbicidal rating GLXMAW ([5]; rate 0.0625 kg/ha): 7.5
- Preemergence herbicidal rating GALAP (GALAP (Galium); rate 0.0313 kg/ha): 0.0
- Preemergence herbicidal rating GALAP (GALAP (Galium); rate 0.0625 kg/ha): 0.0
- Preemergence herbicidal rating GALAP (GALAP (Galium); rate 0.1250 kg/ha): 0.0
- Preemergence herbicidal rating GALAP (GALAP (Galium); rate 0.2500 kg/ha): 4.0
- Preemergence herbicidal rating AMBEL (AMBEL (Ragweed, Common) [6]; rate 0.0313 kg/ha): 0.0
- Preemergence herbicidal rating AMBEL (AMBEL (Ragweed, Common) [6]; rate 0.0625 kg/ha): 0.0
- Preemergence herbicidal rating AMBEL (AMBEL (Ragweed, Common) [6]; rate 0.1250 kg/ha): 0.0
- Preemergence herbicidal rating AMBEL (AMBEL (Ragweed, Common) [6]; rate 0.2500 kg/ha): 1.0

Structure (SMILES): COc1ccc(CN2C(=O)CSC2=Nc2cc(-n3c(=O)cc(C(F)(F)F)n(C)c3=O)c(F)cc2Cl)cc1OC [Compound 134, 3-{4-Chloro-5-{[3-(3,4-dimethoxybenzyl)-4-oxo-2-thiazolidinylidene]amino}-2-fluorophenyl}-1-methyl-6-(trifluoromethyl)-2,4(1H,3H)-pyrimidinedione]
- Preemergence herbicidal rating ABUTH (ABUTH (Velvetleaf); rate 0.1250 kg/ha): 0.0
- Preemergence herbicidal rating ABUTH (ABUTH (Velvetleaf); rate 0.2500 kg/ha): 7.0
- Preemergence herbicidal rating CASOB (CASOB (Sicklepod); rate 0.1250 kg/ha): 0.0
- Preemergence herbicidal rating CASOB (CASOB (Sicklepod); rate 0.2500 kg/ha): 1.0
- Preemergence herbicidal rating GLXMAW ([1]; rate 0.1250 kg/ha): 0.0
- Preemergence herbicidal rating GLXMAW ([1]; rate 0.2500 kg/ha): 0.0
- Preemergence herbicidal rating ECHCG (ECHCG (Barnyardgrass); rate 0.1250 kg/ha): 0.0
- Preemergence herbicidal rating ECHCG (ECHCG (Barnyardgrass); rate 0.2500 kg/ha): 0.0
- herbicidal rating IPOHE ([2]; rate 0.0156 kg/ha): 3.0
- herbicidal rating IPOHE ([2]; rate 0.0313 kg/ha): 9.0
- herbicidal rating IPOHE ([2]; rate 0.0625 kg/ha): 9.0
- herbicidal effect rating, SAGPY [3]: 0.0
- Preemergence herbicidal rating SETVI (SETVI (Foxtail, Green); rate 0.1250 kg/ha): 0.0
- Preemergence herbicidal rating SETVI (SETVI (Foxtail, Green); rate 0.2500 kg/ha): 2.0
- herbicidal rating ZEAMX (ZEAMX (Corn, Field); rate 0.0156 kg/ha): 3.5
- herbicidal rating ZEAMX (ZEAMX (Corn, Field); rate 0.0313 kg/ha): 4.5
- herbicidal rating ZEAMX (ZEAMX (Corn, Field); rate 0.0625 kg/ha): 4.5
- herbicidal rating AMBEL (AMBEL (Ragweed, Common) [4]; rate 0.0156 kg/ha): 3.0
- herbicidal rating AMBEL (AMBEL (Ragweed, Common) [4]; rate 0.0313 kg/ha): 4.0
- herbicidal rating AMBEL (AMBEL (Ragweed, Common) [4]; rate 0.0625 kg/ha): 7.0
- herbicidal rating GLXMAW ([5]; rate 0.0156 kg/ha): 3.5
- herbicidal rating GLXMAW ([5]; rate 0.0313 kg/ha): 4.0
- herbicidal rating GLXMAW ([5]; rate 0.0625 kg/ha): 5.0
- Preemergence herbicidal rating GALAP (GALAP (Galium); rate 0.1250 kg/ha): 1.0
- Preemergence herbicidal rating GALAP (GALAP (Galium); rate 0.2500 kg/ha): 0.0
- Preemergence herbicidal rating AMBEL (AMBEL (Ragweed, Common) [6]; rate 0.1250 kg/ha): 0.0
- Preemergence herbicidal rating AMBEL (AMBEL (Ragweed, Common) [6]; rate 0.2500 kg/ha): 3.0
